Measured values as given in US20030152536A1, “Cosmetic preparations containing waltheria indica extracts” (priority 2000, published 2003).

Tested on: melanin index of forearm skin
Experiment: In vivo lightening of color on the forearm of 41 volunteers with Asiatic skin color (melanin index D56/D0)
Design: species or system human
Conditions: D0 melanin index before, D56 after treatment
Experimental: The effectiveness of the preparations according to the invention by comparison with known preparations was tested in vitro by inhibition of the synthesis of melanin in B 16 melanocytes. The concentration of the active principles (in % by weight) in the cell culture medium and the inhibition in %-rel. in relation to the blank value are shown. An in vivo test was also carried out by measuring the lightening of color on the extensor muscle side of the forearm of 41 volunteers with Asiatic skin color. The depigmenting activity D56/D0 is shown, D0 standing for the melanin index before the treatment and D56 for the index after the treatment.

Molecule `OC[C@H]1O[C@@H](Oc2ccc(O)cc2)[C@H](O)[C@@H](O)[C@@H]1O` [Arbutin] has a D56/D0 (concentration 0.1) of 54 and a D56/D0 (concentration 0.3) of 30.
